Results published in ChEMBL document CHEMBL3045169, “In vitro evaluation of the antibacterial and antifungal activity of some new pyrazolyl-quinazolin-4(3H)-one derivatives” (2012).

Key:
Format in all cases: functional
[1] = system: Aspergillus niger; assay: Antifungal activity against Aspergillus niger ATCC 6275 by agar cup-plate method relative to fluconazole; parameters: concentration or dose not given beside the values
[2] = system: Aspergillus niger; assay: Antifungal activity against Aspergillus niger ATCC 6275 at 10 ug/ml by agar cup-plate method; settings: read-out: IZ
[3] = system: Aspergillus niger; assay: Antifungal activity against Aspergillus niger ATCC 6275 at 20 ug/ml by agar cup-plate method; settings: read-out: IZ
[4] = system: Candida albicans; assay: Antifungal activity against Candida albicans ATCC 10231 by agar cup-plate method relative to fluconazole; parameters: concentration or dose not given beside the values
[5] = system: Candida albicans; assay: Antifungal activity against Candida albicans ATCC 10231 at 10 ug/ml by agar cup-plate method; settings: read-out: IZ
[6] = system: Candida albicans; assay: Antifungal activity against Candida albicans ATCC 10231 at 20 ug/ml by agar cup-plate method; settings: read-out: IZ
[7] = system: Pseudomonas aeruginosa; assay: Antibacterial activity against Pseudomonas aeruginosa ATCC 9027 by agar cup-plate method relative to penicillin-G; parameters: concentration or dose not given beside the values
[8] = system: Pseudomonas aeruginosa; assay: Antibacterial activity against Pseudomonas aeruginosa ATCC 9027 at 50 ug/ml by agar cup-plate method; settings: read-out: IZ
[9] = system: Pseudomonas aeruginosa; assay: Antibacterial activity against Pseudomonas aeruginosa ATCC 9027 at 100 ug/ml by agar cup-plate method; settings: read-out: IZ
[10] = system: Escherichia coli; assay: Antibacterial activity against Escherichia coli ATCC 25922 by agar cup-plate method relative to penicillin-G; parameters: concentration or dose not given beside the values
[11] = system: Escherichia coli; assay: Antibacterial activity against Escherichia coli ATCC 25922 at 50 ug/ml by agar cup-plate method; settings: read-out: IZ
[12] = system: Escherichia coli; assay: Antibacterial activity against Escherichia coli ATCC 25922 at 100 ug/ml by agar cup-plate method; settings: read-out: IZ
[13] = system: Bacillus subtilis; assay: Antibacterial activity against Bacillus subtilis ATCC 6633 by agar cup plate method relative to penicillin-G; parameters: concentration or dose not given beside the values
[14] = system: Bacillus subtilis; assay: Antibacterial activity against Bacillus subtilis ATCC 6633 at 50 ug/ml by agar cup plate method; settings: read-out: IZ
[15] = system: Bacillus subtilis; assay: Antibacterial activity against Bacillus subtilis ATCC 6633 at 100 ug/ml by agar cup plate method; settings: read-out: IZ
[16] = system: Staphylococcus aureus; assay: Antibacterial activity against Staphylococcus aureus ATCC 9144 by agar cup-plate method relative to penicillin-G; parameters: concentration or dose not given beside the values
[17] = system: Staphylococcus aureus; assay: Antibacterial activity against Staphylococcus aureus ATCC 9144 at 50 ug/ml by agar cup-plate method; settings: read-out: IZ
[18] = system: Staphylococcus aureus; assay: Antibacterial activity against Staphylococcus aureus ATCC 9144 at 100 ug/ml by agar cup-plate method; settings: read-out: IZ

Structure (SMILES)	Activity [1] [%]	zone of inhibition at 10 µg/mL [2] [mm]	zone of inhibition at 20 µg/mL [3] [mm]	Activity [4] [%]	zone of inhibition at 10 µg/mL [5] [mm]	zone of inhibition at 20 µg/mL [6] [mm]	Activity [7] [%]	zone of inhibition at 50 µg/mL [8] [mm]	zone of inhibition at 100 µg/mL [9] [mm]	Activity [10] [%]	zone of inhibition at 50 µg/mL [11] [mm]	zone of inhibition at 100 µg/mL [12] [mm]	Activity [13] [%]	zone of inhibition at 50 µg/mL [14] [mm]	zone of inhibition at 100 µg/mL [15] [mm]	Activity [16] [%]	zone of inhibition at 50 µg/mL [17] [mm]	zone of inhibition at 100 µg/mL [18] [mm]
O=c1c2cc(I)ccc2nc(Cc2ccccc2Nc2ccccc2)n1NC1=NNC(c2ccc(Cl)cc2)C1 (stereo not drawn)	58.12	15	17	67.26	16	18	48.61	0	7	40.81	0	6	41.49	0	6	44.39	0	6
COc1ccc(C2CC(Nn3c(Cc4ccccc4Nc4ccccc4)nc4ccc(I)cc4c3=O)=NN2)cc1 (stereo not drawn)	45.04	0	7	49.07	0	7	68.97	15	19	57.71	15	18	41.49	9	11	38.15	8	10
O=c1c2cc(I)ccc2nc(Cc2ccccc2Nc2ccccc2)n1NC1=NNC(c2ccccc2[N+](=O)[O-])C1 (stereo not drawn)	58.12	15	17	68.81	15	18	55.43	12	15	47.67	11	14	63.61	13	17	55.29	13	16
O=c1c2cc(I)ccc2nc(Cc2ccccc2Nc2ccccc2)n1NC1=NNC(c2cccc(O)c2)C1 (stereo not drawn)	45.04	0	7	49.07	0	7	39.56	8	10	34.11	7	9	47.05	11	13	42.34	10	12
COc1ccccc1C1CC(Nn2c(Cc3ccccc3Nc3ccccc3)nc3ccc(I)cc3c2=O)=NN1 (stereo not drawn)	41.3	0	6	45.11	0	6	63.19	13	17	52.45	13	16	38.97	8	10	36.21	7	9
OC(Cn1cncn1)(Cn1cncn1)c1ccc(F)cc1F [FLUCONAZOLE]		22	28		21	26												
O=c1c2cc(I)ccc2nc(Cc2ccccc2Nc2ccccc2)n1NC1=NNC(c2ccc(O)cc2)C1 (stereo not drawn)	51.18	11	14	56.01	13	15	37.4	7	9	32.33	6	8	41.49	9	11	38.15	8	10
O=c1c2cc(I)ccc2nc(Cc2ccccc2Nc2ccccc2)n1NC1=NNC(c2cccc([N+](=O)[O-])c2)C1 (stereo not drawn)	51.18	11	14	56.01	13	15	67.47	16	19	62.3	15	19	52.61	11	14	52.83	12	15
O=c1c2cc(I)ccc2nc(Cc2ccccc2Nc2ccccc2)n1NC1=NNC(c2ccccc2Cl)C1 (stereo not drawn)	66.9	16	19	76.62	17	20	48.61	0	7	44.45	0	7	45.27	0	7	44.39	0	6
O=c1c2cc(I)ccc2nc(Cc2ccccc2Nc2ccccc2)n1NC1=NNC(c2ccccc2)C1 (stereo not drawn)	58.12	15	17	68.81	15	18	48.61	0	7	40.81	0	6	81.79	18	22	70.87	17	21
O=c1c2cc(I)ccc2nc(Cc2ccccc2Nc2ccccc2)n1NC1=NNC(c2cccc(Cl)c2)C1 (stereo not drawn)	53.99	12	15	59.53	14	16	44.72	0	6	40.81	0	6	41.49	0	6	44.39	0	6
O=c1c2cc(I)ccc2nc(Cc2ccccc2Nc2ccccc2)n1NC1=NNC(c2ccc([N+](=O)[O-])cc2)C1 (stereo not drawn)	51.52	13	15	59.53	14	16	61.15	14	17	54.75	12	16	58.83	13	16	55.57	11	15
CC1(C)S[C@@H]2[C@H](NC(=O)Cc3ccccc3)C(=O)N2[C@H]1C(=O)O [PENICILLIN G]								23	28		25	31		21	27		25	30
O=c1c2cc(I)ccc2nc(Cc2ccccc2Nc2ccccc2)n1NC1=NNC(c2ccccc2O)C1 (stereo not drawn)	38.11	8	10	49.95	9	12	39.56	8	10	34.11	7	9	41.49	9	11	38.15	8	10
